Assay results as given in patent publication US10172355B2, “Safened herbicidal compositions including 4-amino-3-chloro-5-fluoro-6-(4-chloro-2-fluoro-3-methoxyphenyl)pyridine-2-carboxylic acid or a derivative thereof for use in rice” (Dow AgroSciences LLC, priority 2012, dated 2019).
Where two headings read alike, the source gives them in different places.

Assays:
ORYSA=Orysa sativa, Rice = test: Postemergence foliar-applied herbicides and safeners in direct-seeded rice, visual injury; assay type: in vivo; settings: for Visual crop injury (%) at 140 g/ha: Oryza sativa, 480 h, read-out: Visual Injury (%) - 20 DAA ORYSA-‘Clearfield 171’ Obs, foliar, Compound A form 140 g ae/ha alone; for Visual crop injury (%) at 140 g/ha / Visual Injury (%) - 21 DAA ORYSA-‘Clearfield 171’ Obs / Visual Injury (%) - 21 DAA ORYSA-‘Neptune’ Obs / Visual Injury (%) - 21 DAA ORYSA-‘Wells’ Obs: foliar; for Visual Injury (%) - 21 DAA ORYSA-‘Clearfield 171’ Obs / Visual Injury (%) - 21 DAA ORYSA-‘Neptune’ Obs / Visual Injury (%) - 21 DAA ORYSA-‘Wells’ Obs: Compound A form 70 g ae/ha alone, Tables 1,2,7,8; for Mean Visual Injury (%) - 20-22 DAA ORYSA ‘Clearfield 171’ / Mean Visual Injury (%) - 20-22 DAA ORYSA ‘Wells’: post-emergence foliar
From the text: (§1) Seeds or nutlets of the desired test plant species were planted in a soil matrix prepared by mixing a loam or sandy loam soil (e.g., 28.6 percent silt, 18.8 percent clay, and 52.6 percent sand, with a pH of about 5.8 and an organic matter content of about 1.8 percent) and calcareous grit in an 80 to 20 ratio. The soil matrix was contained in plastic pots with a surface area of 84.6 square centimeters (cm^2). When required to ensure good germination and healthy plants, a fungicide treatment and/or other chemical or physical treatment was applied. The plants were grown for 8-22 days in a greenhouse with an approximate 14 hr photoperiod which was maintained at about 29° C. during the day and 26° C. during the night. Nutrients (Peters Excel 15-5-15 5-Ca 2-Mg and iron chelate) were applied in the irrigation solution as needed and water was added on a regular basis. Supplemental lighting was provided with overhead metal halide 1000-Watt lamps as necessary. The plants were employed for testing when they reached the second or third true leaf stage.
(§2) Treatments consisted of the acid or esters of 4-amino-3-chloro-5-fluoro-6-(4-chloro-2-fluoro-3-methoxy-phenyl)pyridine-2-carboxylic acid (compound A) and various safener components alone and in combination. Forms of compound A were applied on an acid equivalent basis. Safener components were applied on an active ingredient or acid equivalent basis depending on the compound.
(§3) Treatment requirements were calculated based upon the rates being tested, the concentration of active ingredient or acid equivalent in the formulation, and a 12 mL application volume at a rate of 187 L/ha.
(§4) For treatments comprised of formulated compounds, measured amounts of compounds were placed individually in 25 mL glass vials and diluted in a volume of 1.25% (v/v) Agri-dex crop oil concentrated to obtain 12× stock solutions. […] Application solutions were prepared by adding an appropriate amount of each stock solution (e.g., 1 mL) and diluted to the appropriate final concentrations with the addition of 10 mL of an aqueous mixture of 1.25% (v/v) Agri-dex crop oil concentrate so that the final spray solutions contained 1.25% (v/v) Agri-dex crop oil concentrate.
(§5) For treatments comprised of technical compounds, weighed amounts were placed individually in 25 mL glass vials and dissolved in a volume of 97:3 v/v acetone/DMSO to obtain 12× stock solutions. […] Application solutions were prepared by adding an appropriate amount of each stock solution (e.g., 1 mL) and diluted to the appropriate final concentrations with the addition of 10 mL of an aqueous mixture of 1.5% (v/v) Agri-dex crop oil concentrate so that the final spray solutions contained 1.25% (v/v) Agri-dex crop oil concentrate. When technical materials were used, the concentrated stock solutions were added to the spray solutions so that the final acetone and DMSO concentrations of the application solutions were […], respectively.
(§6) For treatments comprised of formulated and technical compounds, weighed amounts of the technical materials were placed individually in 25 mL glass vials and dissolved in a volume of 97:3 v/v acetone/DMSO to obtain 12× stock solutions, and measured amounts of the formulated compounds were placed individually in 25 mL glass vials and diluted in a volume of 1.5% (v/v) Agri-dex crop oil concentrate or water to obtain 12× stock solutions. […] Application solutions were prepared by adding an appropriate amount of each stock solution (e.g., 1 mL) and diluted to the appropriate final concentrations with the addition of an appropriate amount of an aqueous mixture of 1.5% (v/v) Agri-dex crop oil concentrate so that the final spray solutions contained 1.25% (v/v) Agri-dex crop oil concentrate. When required, additional water and/or 97:3 v/v acetone/DMSO was added to individual application solutions so that the final acetone and DMSO concentrations of the application solutions being compared were 8.1% and 0.25%, respectively. […]

[1] = test system: ECHCG=Echinochloa crus-galli; test: Postemergence foliar-applied herbicides and safeners, visual injury of weed; assay type: in vivo; settings: for pest or weed control at 140 g/ha: Echinochloa crus-galli, foliar, 480 h, read-out: Visual Injury (%) - 20 DAA ECHCG Obs, foliar, Compound A form 140 g ae/ha alone; for Mean Visual Injury (%) - 20-22 DAA ECHCG: post-emergence foliar
From the text: as §1, §2, §3, §4, §5, §6

Structure (SMILES)	Visual crop injury (%) at 140 g/ha (ORYSA=Orysa sativa, Rice; trial of Tables 3,4,6,10,12,14) [%]	Visual crop injury (%) at 140 g/ha (ORYSA=Orysa sativa, Rice; trial of Tables 5,9,11,13) [%]	Visual Injury (%) - 21 DAA ORYSA-‘Clearfield 171’ Obs (ORYSA=Orysa sativa, Rice) [%]	Visual Injury (%) - 21 DAA ORYSA-‘Neptune’ Obs (ORYSA=Orysa sativa, Rice) [%]	Visual Injury (%) - 21 DAA ORYSA-‘Wells’ Obs (ORYSA=Orysa sativa, Rice) [%]	Mean Visual Injury (%) - 20-22 DAA ORYSA ‘Clearfield 171’ (ORYSA=Orysa sativa, Rice; 2 g ae/ha) [%]	Mean Visual Injury (%) - 20-22 DAA ORYSA ‘Wells’ (ORYSA=Orysa sativa, Rice; 2 g ae/ha) [%]	Mean Visual Injury (%) - 20-22 DAA ORYSA ‘Clearfield 171’ (ORYSA=Orysa sativa, Rice; 4 g ae/ha) [%]	Mean Visual Injury (%) - 20-22 DAA ORYSA ‘Wells’ (ORYSA=Orysa sativa, Rice; 4 g ae/ha) [%]	Mean Visual Injury (%) - 20-22 DAA ORYSA ‘Clearfield 171’ (ORYSA=Orysa sativa, Rice; 8 g ae/ha) [%]	Mean Visual Injury (%) - 20-22 DAA ORYSA ‘Wells’ (ORYSA=Orysa sativa, Rice; 8 g ae/ha) [%]	Mean Visual Injury (%) - 20-22 DAA ORYSA ‘Clearfield 171’ (ORYSA=Orysa sativa, Rice; 16 g ae/ha) [%]	Mean Visual Injury (%) - 20-22 DAA ORYSA ‘Wells’ (ORYSA=Orysa sativa, Rice; 16 g ae/ha) [%]	Mean Visual Injury (%) - 20-22 DAA ORYSA ‘Clearfield 171’ (ORYSA=Orysa sativa, Rice; 32 g ae/ha) [%]	Mean Visual Injury (%) - 20-22 DAA ORYSA ‘Wells’ (ORYSA=Orysa sativa, Rice; 32 g ae/ha) [%]	pest or weed control at 140 g/ha ([1]; trial of Tables 3,4,6,10,12,14) [%]	pest or weed control at 140 g/ha ([1]; trial of Tables 5,9,11,13) [%]	Mean Visual Injury (%) - 20-22 DAA ECHCG ([1]; 2 g ae/ha) [%]	Mean Visual Injury (%) - 20-22 DAA ECHCG ([1]; 4 g ae/ha) [%]	Mean Visual Injury (%) - 20-22 DAA ECHCG ([1]; 8 g ae/ha) [%]	further results
COc1c(Cl)ccc(-c2nc(C(=O)OCc3ccccc3)c(Cl)c(N)c2F)c1F [Benzyl]	13	15	0	5	0	0	0	0	0	0	0	8	3	3	3	98	99	63	91	94	Mean Visual Injury (%) - 20-22 DAA ECHCG ([1]; 16 g ae/ha): 95%; Mean Visual Injury (%) - 20-22 DAA ECHCG ([1]; 32 g ae/ha): 96%
COc1c(Cl)ccc(-c2nc(C(=O)O)c(Cl)c(N)c2F)c1F [Acid, 4-amino-3-chloro-6-(4-chloro-2-fluoro-3-methoxyphenyl)-5-fluoropyridine-2-carboxylic acid]	43	38	22	40	12	0	0	0	0	2	0	11	7	24	12	98	96	57	81	91	Mean Visual Injury (%) - 20-22 DAA ECHCG ([1]; 16 g ae/ha): 95%; Mean Visual Injury (%) - 20-22 DAA ECHCG ([1]; 32 g ae/ha): 96%
